Results reported in patent US8003660B2, “Modulators of muscarinic receptors” (Vertex Pharmaceuticals Incorporated, priority 2006, dated 2011).

How the values were obtained:
Assay type in all cases: cell-based
M3 muscarinic receptor = target: T1, M3 muscarinic receptor (Homo sapiens, UniProt P20309); experiment: Functional mobilization of intracellular calcium (FLIPR) in CHO cells expressing M3; details: for EC50: CHO cells expressing M3, FLIPR calcium; for Emax: CHO, 100% = maximum response obtained with the Carbachol control, read-out: M3 Efficacy
T1 construct: expressed in transfected cells; host or cells: CHO (M3-CHO)
How it was run: (§1)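 Calcium flux is read on FLIPR over 60 sec at 488/540 nm in muscarinic-receptor CHO lines. Antagonist mode adds carbachol at EC80 after 15 min compound preincubation or with simultaneous co-application. Agonist mode adds compound alone. Cells carry Fluo-3 or Calcium 3 dye in probenecid-containing pH 7.4 buffer, 0.5% DMSO final.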

M2 muscarinic receptor = target: T2, M2 muscarinic receptor (Homo sapiens, UniProt P08172); experiment: Functional mobilization of intracellular calcium (FLIPR) in CHO cells expressing M2; details: for EC50: CHO cells expressing M2, FLIPR calcium; for Emax: CHO, 100% = maximum response obtained with the Carbachol control, read-out: M2 Efficacy
T2 construct: expressed in transfected cells; host or cells: CHO (M2-CHO)
T2 sequence (P08172 1-466): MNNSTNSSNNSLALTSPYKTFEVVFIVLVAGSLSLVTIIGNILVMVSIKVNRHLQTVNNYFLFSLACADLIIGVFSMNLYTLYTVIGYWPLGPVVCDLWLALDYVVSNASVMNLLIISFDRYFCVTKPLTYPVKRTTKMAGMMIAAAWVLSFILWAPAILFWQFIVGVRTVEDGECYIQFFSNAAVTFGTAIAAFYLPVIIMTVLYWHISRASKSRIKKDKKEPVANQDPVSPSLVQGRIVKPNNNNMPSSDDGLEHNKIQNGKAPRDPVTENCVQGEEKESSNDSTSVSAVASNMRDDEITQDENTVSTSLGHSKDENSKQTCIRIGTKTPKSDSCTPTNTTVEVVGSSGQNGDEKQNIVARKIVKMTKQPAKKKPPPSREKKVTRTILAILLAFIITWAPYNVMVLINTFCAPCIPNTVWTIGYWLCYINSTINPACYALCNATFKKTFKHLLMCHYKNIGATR
How it was run: as §1

M4 muscarinic receptor = target: T3, M4 muscarinic receptor (Homo sapiens, UniProt P08173); experiment: Functional mobilization of intracellular calcium (FLIPR) in CHO cells expressing M4; details: for EC50: CHO cells expressing M4, FLIPR calcium; for Emax: CHO, 100% = maximum response obtained with the Carbachol control, read-out: M4 Efficacy
T3 construct: expressed in transfected cells; host or cells: CHO (M4-CHO)
T3 sequence (P08173 1-479): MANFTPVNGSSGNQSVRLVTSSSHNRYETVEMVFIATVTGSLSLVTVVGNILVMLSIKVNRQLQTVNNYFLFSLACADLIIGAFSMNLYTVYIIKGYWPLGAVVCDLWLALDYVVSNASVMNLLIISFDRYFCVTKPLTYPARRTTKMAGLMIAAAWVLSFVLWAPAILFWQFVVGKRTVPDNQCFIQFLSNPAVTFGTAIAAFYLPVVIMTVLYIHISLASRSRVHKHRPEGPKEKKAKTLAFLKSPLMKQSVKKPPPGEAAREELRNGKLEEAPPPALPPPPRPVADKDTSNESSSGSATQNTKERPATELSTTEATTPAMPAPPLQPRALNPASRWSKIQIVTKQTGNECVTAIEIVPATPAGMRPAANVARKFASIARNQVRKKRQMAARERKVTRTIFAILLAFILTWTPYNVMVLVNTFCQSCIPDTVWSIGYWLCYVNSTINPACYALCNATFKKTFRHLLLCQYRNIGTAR
How it was run: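 Recombinant CHO cells loaded with Fluo-3 AM or Calcium 3 dye in pH 7.4 buffer containing 1 mM probenecid, with 0.5% final DMSO. For agonism, compound is added directly. For inhibition, it is preincubated 15 min, or co-applied, before carbachol at EC80. FLIPR fluorescence (ex 488, em 540 nm) is recorded for 60 s.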

M1 muscarinic receptor = target: T4, M1 muscarinic receptor (Homo sapiens, UniProt P11229); experiment: Functional mobilization of intracellular calcium (FLIPR) in CHO cells expressing M1; details: for EC50: CHO cells expressing M1, FLIPR calcium; for Emax: CHO, 100% = maximum response obtained with the Carbachol control, read-out: M1 Efficacy
T4 construct: expressed in transfected cells; host or cells: CHO (M1-CHO)
T4 sequence (P11229 1-460): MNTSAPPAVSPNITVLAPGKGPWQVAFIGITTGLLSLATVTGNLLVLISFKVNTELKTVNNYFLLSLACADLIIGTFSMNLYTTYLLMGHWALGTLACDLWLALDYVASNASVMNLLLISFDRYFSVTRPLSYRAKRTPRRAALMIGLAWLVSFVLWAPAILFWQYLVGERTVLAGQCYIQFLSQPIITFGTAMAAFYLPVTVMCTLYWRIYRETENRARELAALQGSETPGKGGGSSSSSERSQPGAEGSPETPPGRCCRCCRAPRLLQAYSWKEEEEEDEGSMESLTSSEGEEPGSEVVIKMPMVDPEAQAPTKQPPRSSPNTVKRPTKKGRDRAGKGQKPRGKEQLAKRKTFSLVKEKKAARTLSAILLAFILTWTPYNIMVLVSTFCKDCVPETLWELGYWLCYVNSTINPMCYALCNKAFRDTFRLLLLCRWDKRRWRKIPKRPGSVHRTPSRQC
How it was run: as §1

T1 sequence (P20309 whole entry): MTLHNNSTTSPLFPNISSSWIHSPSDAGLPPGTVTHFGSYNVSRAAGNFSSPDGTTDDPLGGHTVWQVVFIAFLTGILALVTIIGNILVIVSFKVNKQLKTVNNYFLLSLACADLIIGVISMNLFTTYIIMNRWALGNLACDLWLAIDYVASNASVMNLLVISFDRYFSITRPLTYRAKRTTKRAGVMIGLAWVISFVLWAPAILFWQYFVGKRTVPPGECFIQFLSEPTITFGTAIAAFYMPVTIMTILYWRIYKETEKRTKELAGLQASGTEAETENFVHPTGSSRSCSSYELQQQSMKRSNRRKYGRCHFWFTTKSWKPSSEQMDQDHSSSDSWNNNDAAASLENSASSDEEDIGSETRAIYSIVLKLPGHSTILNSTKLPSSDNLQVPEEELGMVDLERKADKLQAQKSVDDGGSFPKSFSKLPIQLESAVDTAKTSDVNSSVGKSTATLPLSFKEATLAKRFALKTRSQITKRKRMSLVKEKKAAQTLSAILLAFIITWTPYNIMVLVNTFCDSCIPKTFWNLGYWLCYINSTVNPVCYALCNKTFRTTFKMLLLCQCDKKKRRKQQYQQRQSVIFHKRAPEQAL

SMILES	EC50 (M3 muscarinic receptor) [nM]	Emax (M3 muscarinic receptor) [%]	EC50 (M2 muscarinic receptor) [nM]	Emax (M2 muscarinic receptor) [%]	EC50 (M4 muscarinic receptor) [nM]	Emax (M4 muscarinic receptor) [%]	EC50 (M1 muscarinic receptor) [nM]	Emax (M1 muscarinic receptor) [%]
CCC(=O)N[C@H]1CCC2(CCN(CCC(C)(C)C)CC2)c2ccccc21 [compound 156]	> 5000	< 25	< 2000	25 to 100	< 2000	25 to 100	< 2000	25 to 100
C[C@H](C(=O)N[C@@H]1CCC2(CCN(CCC(C)(C)C)CC2)c2ccccc21)N1CCCC1=O [compound 157]	> 5000	< 25	< 2000	< 25	< 2000	25 to 100	2000 to 5000	25 to 100
CC(C)(C)CCN1CCC2(CC[C@H](NC(=O)C3CC3)c3ccccc32)CC1 [compound 158]	> 5000	< 25	< 2000	25 to 100	< 2000	25 to 100	< 2000	25 to 100
CC(=O)N[C@H]1CCC2(CCN(CCC(C)C)CC2)c2ccccc21 [compound 159]	> 5000	< 25	> 5000	< 25	< 2000	25 to 100	< 2000	25 to 100
CC(=O)N1CCC[C@@H]1C(=O)N[C@H]1CCC2(CCN(CCC(C)(C)C)CC2)c2ccccc21 [compound 160]	> 5000	< 25	> 5000	< 25	< 2000	25 to 100	< 2000	25 to 100
CN([C@H]1CCC2(CCN(CCC(C)(C)C)CC2)c2ccccc21)S(C)(=O)=O [compound 161]	> 5000	< 25	> 5000	< 25	< 2000	25 to 100	< 2000	25 to 100
CC(=O)N[C@H](C)C(=O)N[C@@H]1CCC2(CCN(CCC(C)(C)C)CC2)c2ccccc21 [compound 162]	> 5000	< 25	> 5000	< 25	< 2000	25 to 100	> 5000	25 to 100
CC(=O)N[C@H](C)C(=O)N[C@@H]1CCC2(CCN(CCC(C)(C)C)CC2)c2cc(F)ccc21 [compound 163]	> 5000	< 25	< 2000	25 to 100	< 2000	25 to 100	< 2000	25 to 100
CCC(=O)N(C)[C@H]1CCC2(CCN(CCC(C)(C)C)CC2)c2ccccc21 [compound 164]	> 5000	< 25	> 5000	< 25	< 2000	25 to 100	< 2000	25 to 100
Cn1cnc(C(=O)N[C@H]2CCC3(CCN(CCC(C)(C)C)CC3)c3cc(F)ccc32)c1 [compound 165]	> 5000	< 25	< 2000	25 to 100	< 2000	25 to 100	< 2000	25 to 100
CCN(C(=O)C1CCN(C(=O)OC)CC1)[C@H]1CCC2(CCN(CCC(C)(C)C)CC2)c2ccccc21 [compound 166]	> 5000	< 25	> 5000	< 25	< 2000	25 to 100	> 5000	25 to 100
CC(C)[C@@H](C(=O)N[C@H]1CCC2(CCN(CCC(C)(C)C)CC2)c2ccccc21)N1CCCC1=O [compound 167]	> 5000	< 25	> 5000	< 25	< 2000	25 to 100	< 2000	25 to 100
CC(C)(C)CCN1CCC2(CC[C@@H](N3CCCC3=O)c3ccc(F)cc32)CC1 [compound 168]	> 5000	< 25	> 5000	< 25	< 2000	25 to 100	2000 to 5000	< 25
CC(C)(C)CCN1CCC2(CC[C@@H](NC(=O)CN3CCCCCC3=O)c3ccccc32)CC1 [compound 169]	> 5000	< 25	< 2000	< 25	< 2000	25 to 100	< 2000	25 to 100
CCN(C(=O)C1CCOCC1)[C@H]1CCC2(CCN(CCC(C)(C)C)CC2)c2ccccc21 [compound 170]	> 5000	< 25	> 5000	< 25	< 2000	25 to 100	> 5000	< 25
CC(=O)N(C)CCC(=O)N[C@H]1CCC2(CCN(CCC(C)(C)C)CC2)c2ccccc21 [compound 171]	> 5000	< 25	< 2000	25 to 100	< 2000	25 to 100	< 2000	25 to 100
C=CCCCN1CCC2(CC[C@H](NC(C)=O)c3ccccc32)CC1 [compound 172]	> 5000	< 25	2000 to 5000	25 to 100	< 2000	25 to 100	< 2000	25 to 100
CC(C)(C)CCN1CCC2(CCC(=O)c3ccccc32)CC1 [compound 173]	> 5000	< 25	< 2000	25 to 100	< 2000	25 to 100	< 2000	25 to 100
COC(=O)N(C)[C@H]1CCC2(CCN(CCC(C)(C)C)CC2)c2ccccc21 [compound 174]	> 5000	< 25	> 5000	< 25	< 2000	25 to 100	2000 to 5000	25 to 100
CN(C)C(=O)N[C@H]1CCC2(CCN(CCC(C)(C)C)CC2)c2ccccc21 [compound 175]	> 5000	< 25	> 5000	< 25	< 2000	25 to 100	> 5000	< 25
CN(C(=O)C1CC1)[C@H]1CCC2(CCN(CCC(C)(C)C)CC2)c2ccccc21 [compound 176]	> 5000	< 25	> 5000	< 25	< 2000	25 to 100	2000 to 5000	< 25
CC(=O)N[C@H]1CCC2(CCN(CCC(C)(C)C)CC2)c2cc(F)ccc21 [compound 177]	> 5000	< 25	< 2000	25 to 100	< 2000	25 to 100	< 2000	25 to 100
CN(C(=O)C1CCCC1)[C@H]1CCC2(CCN(CCC(C)(C)C)CC2)c2ccccc21 [compound 178]	> 5000	< 25	> 5000	< 25	< 2000	25 to 100	> 5000	< 25
